Source: patent US20210189352A1, “ENHANCED REPROGRAMMING OF SOMATIC CELLS” (IMBA - INSTITUT FÜR MOLEKULARE BIOTECHNOLOGIE GMBH, priority 2017, published 2021)

System: murine embryonic stem cell clone AN3-12
Test: Etoposide treatment of mouse ES cells (LD30 dose)
Format: cell-based
Conditions: 8 day treatment, medium supplemented every day
Protocol: A murine embryonic stem cell clone, derived from a derivative of HMSc2 termed AN3-12, with doxycycline inducible Cas9 (T3G-Cas9-IRES-mcherry PGK-GFP-rtTA) was used for this study. The following ES cell medium (ESCM) was used: 450 ml DMEM (Sigma D1152); 75 ml FCS (Invitrogen); 5.5 ml P/S (Sigma P0781); 5.5 ml NEAA (Sigma M7145); 5.5 ml LGlu (Sigma G7513); 5.5 ml NaPyr (Sigma S8636); 0.55 ml beta-mercapto ethanol (Merck 805740; dilute 10 μl bME in 2.85 ml PBS for a 1000× stock), 7.5 μl LIF (IMBA-MolBioService; 2 mg/ml). Cell culture-grade dishes were from Greiner (Greiner 15 cm 639160) and NUNC (all other formats, e.g. 10 cm dish Nunclon A Surface, cat no. 150350; 6-well Nunclon A Surface, cat no. 140675). Cells were trypsinized and replated every 2nd day and frozen in FCS:ESCM:DMSO=4.5:4.5:1. Cells were tested for mycoplasma every second week. Etoposide treatment: Medium was supplemented every day with 3.3 nM etoposide, an LD30 dose for 8 day treatment (Sigma E2600000), 1000× etoposide stocks dissolved in PBS-10% EtOH were used. For doxycycline treatment, medium was supplemented every day with 1 μg/ml (Sigma). Cells are tested for mycoplasma contamination every second week.

COc1cc([C@@H]2c3cc4c(cc3[C@@H](O[C@@H]3O[C@@H]5CO[C@@H](C)O[C@H]5[C@H](O)[C@H]3O)[C@H]3COC(=O)[C@H]23)OCO4)cc(OC)c1O [etoposide]
LD30 dose: 3.3 nM
